In article PMC9865601 (2023):

Legend:
[1] = tested on: Htelo-C (DNA, i motif) TAACCCTAACCCTAACCCTAACCCTAA; assay: bio-layer interferometry; settings: 50 mM KCl; 50 mM Tris-HCl, 2% DMSO, 0.05% P20; pH 5.5 (also pH 7.5); tested to 100 µM
[2] = tested on: c-myc (DNA, i motif) TCCCCACCTTCCCCACCCTCCCCACCCTCCCCA; assay: bio-layer interferometry; settings: 50 mM KCl; 50 mM Tris-HCl, 2% DMSO, 0.05% P20; pH 5.5 (also pH 7.5); tested to 100 µM
[3] = tested on: ssDNA (DNA, single strand) GGCATAGTGCGTGGGCG; assay: bio-layer interferometry; settings: 50 mM KCl; 50 mM Tris-HCl, 2% DMSO, 0.05% P20; tested up to 100 µM
[4] = tested on: HP-GC (DNA, hairpin) CGCGCGCGTTTTCGCGCGCG; assay: bio-layer interferometry; settings: 50 mM KCl; 50 mM Tris-HCl, 2% DMSO, 0.05% P20; tested up to 100 µM
[5] = tested on: DAP-Mut (DNA, single strand) CTACCGCTAACGCCTTCGCTCTCGCTTTC; assay: bio-layer interferometry; settings: 50 mM KCl; 50 mM Tris-HCl, 2% DMSO, 0.05% P20; tested up to 100 µM
[6] = tested on: HRAS (DNA, i motif) CGCCCGTGCCCTGCGCCCGCAACCCGA; assay: CD melting, heating ramp, 285 nm; settings: 100 mM KCl; 10 mM LiAsO2Me2, pH 5.5; 2.5 µM oligo, 20 µM IMC-48
[7] = tested on: bcl-2 (DNA, i motif) CAGCCCCGCTCCCGCCCCCTTCCTCCCGCGCCCGCCCCT; assay: CD melting, heating ramp, 285 nm; settings: 100 mM KCl; 10 mM LiAsO2Me2, pH 5.5; 2.5 µM oligo, 20 µM IMC-48
[8] = tested on: HTelo-C (DNA, i motif) TAACCCTAACCCTAACCCTAACCCTAA; assay: CD melting, heating ramp, 285 nm; settings: 100 mM KCl; 10 mM LiAsO2Me2, pH 5.5; 2.5 µM oligo, 20 µM IMC-48
[9] = tested on: c-myc (DNA, i motif) TCCCCACCTTCCCCACCCTCCCCACCCTCCCCA; assay: CD melting, heating ramp, 285 nm; settings: 100 mM KCl; 10 mM LiAsO2Me2, pH 5.5; 2.5 µM oligo, 20 µM IMC-48

CC(C)CCC[C@@H](C)[C@H]1CC[C@H]2[C@@H]3CC[C@H]4C[C@H](NC(=O)C[N+]5(C)CCCCC5)CC[C@]4(C)[C@H]3CC[C@]12C
binding [1]: no
binding [2]: no
binding [3]: no
binding [4]: no
binding [5]: no
∆Tm [6]: −1.2 ± 1.1 °C
∆Tm [7]: 0.2 ± 0.4 °C
∆Tm [8]: −1.2 ± 0.5 °C
∆Tm [9]: −0.5 ± 0.1 °C
